Columns and labels:
[1] = Metabolic stability, incubation with human liver cytosol; type: in vitro ADME; details: 1 µM test compound, 1 mg/mL protein
[2] = target: T1, CYP3A4 (Homo sapiens, UniProt P08684); details: human, microsomes, 10 µM, pH 7.4
[3] = cited from earlier work
[4] = target: T1, CYP3A4; test: in vitro; details: microsomes, pH 7.4, % Inhibition of Control Activity CYP3A4 (substrate, testosterone)
[5] = target: T1, CYP3A4; test: in vitro; details: microsomes, pH 7.4
[6] = Metabolic stability, incubation with human liver microsomes; details: 1 µM test compound, 0.5 mg/mL protein
[7] = target: T2, CYP1A2 (Homo sapiens, UniProt P05177); test: CYP inhibition in human liver microsomes, CYP1A2
T2 sequence (P05177 1-516): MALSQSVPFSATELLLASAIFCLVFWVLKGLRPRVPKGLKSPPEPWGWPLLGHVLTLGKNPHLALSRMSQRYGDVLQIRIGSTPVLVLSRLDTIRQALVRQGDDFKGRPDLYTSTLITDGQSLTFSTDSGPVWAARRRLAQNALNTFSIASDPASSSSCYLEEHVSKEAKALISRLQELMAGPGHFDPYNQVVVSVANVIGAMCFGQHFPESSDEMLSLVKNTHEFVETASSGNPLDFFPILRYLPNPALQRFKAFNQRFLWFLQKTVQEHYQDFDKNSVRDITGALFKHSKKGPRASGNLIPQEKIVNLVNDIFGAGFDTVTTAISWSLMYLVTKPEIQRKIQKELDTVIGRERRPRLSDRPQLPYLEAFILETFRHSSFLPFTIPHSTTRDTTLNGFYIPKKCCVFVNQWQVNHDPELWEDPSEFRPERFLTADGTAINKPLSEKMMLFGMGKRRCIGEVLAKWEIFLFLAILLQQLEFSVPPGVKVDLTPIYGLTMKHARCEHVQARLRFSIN

[8] = target: T3, CYP2C8 (Homo sapiens, UniProt P10632); test: CYP inhibition in human liver microsomes, CYP2C8; details: for inhibition at 2 µM / inhibition at 10 µM: human, human liver microsomes, pH 7.4, probe paclitaxel
T3 sequence (P10632 1-490): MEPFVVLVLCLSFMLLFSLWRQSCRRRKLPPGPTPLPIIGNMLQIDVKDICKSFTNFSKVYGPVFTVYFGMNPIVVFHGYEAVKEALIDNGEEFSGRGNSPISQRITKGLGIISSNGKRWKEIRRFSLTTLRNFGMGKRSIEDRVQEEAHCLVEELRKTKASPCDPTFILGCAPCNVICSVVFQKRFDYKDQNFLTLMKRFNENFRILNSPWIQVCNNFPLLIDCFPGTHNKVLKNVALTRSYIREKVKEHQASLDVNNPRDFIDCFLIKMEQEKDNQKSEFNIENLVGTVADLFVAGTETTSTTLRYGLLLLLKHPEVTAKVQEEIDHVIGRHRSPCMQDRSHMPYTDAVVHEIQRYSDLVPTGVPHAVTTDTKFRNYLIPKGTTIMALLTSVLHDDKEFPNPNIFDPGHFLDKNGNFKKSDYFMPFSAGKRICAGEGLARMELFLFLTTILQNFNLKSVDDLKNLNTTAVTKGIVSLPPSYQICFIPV

[9] = target: CYP2C9 (Homo sapiens, UniProt P11712); test: CYP inhibition in human liver microsomes, CYP2C9; details: for % Inhibition of Control Activity CYP2C9: inhibitor 10 µM, HLM, NI: No Inhibitin, 10 µM
Chain of CYP2C9 (P11712 whole entry): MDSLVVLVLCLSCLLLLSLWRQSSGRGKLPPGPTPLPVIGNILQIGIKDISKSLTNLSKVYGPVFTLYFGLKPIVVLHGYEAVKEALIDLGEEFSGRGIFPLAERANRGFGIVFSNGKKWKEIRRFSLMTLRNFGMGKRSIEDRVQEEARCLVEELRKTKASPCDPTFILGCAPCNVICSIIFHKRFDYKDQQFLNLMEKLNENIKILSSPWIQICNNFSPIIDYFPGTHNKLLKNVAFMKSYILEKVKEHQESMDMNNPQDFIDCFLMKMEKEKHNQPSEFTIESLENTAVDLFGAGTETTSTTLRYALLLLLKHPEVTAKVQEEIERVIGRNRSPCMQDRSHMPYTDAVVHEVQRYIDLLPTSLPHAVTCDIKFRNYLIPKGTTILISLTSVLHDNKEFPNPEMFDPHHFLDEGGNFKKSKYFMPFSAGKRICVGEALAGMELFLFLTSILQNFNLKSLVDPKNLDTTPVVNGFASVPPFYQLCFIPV

[10] = target: CYP2C19 (Homo sapiens, UniProt P33261); test: CYP inhibition in human liver microsomes, CYP2C19
Chain of CYP2C19 (P33261 whole entry): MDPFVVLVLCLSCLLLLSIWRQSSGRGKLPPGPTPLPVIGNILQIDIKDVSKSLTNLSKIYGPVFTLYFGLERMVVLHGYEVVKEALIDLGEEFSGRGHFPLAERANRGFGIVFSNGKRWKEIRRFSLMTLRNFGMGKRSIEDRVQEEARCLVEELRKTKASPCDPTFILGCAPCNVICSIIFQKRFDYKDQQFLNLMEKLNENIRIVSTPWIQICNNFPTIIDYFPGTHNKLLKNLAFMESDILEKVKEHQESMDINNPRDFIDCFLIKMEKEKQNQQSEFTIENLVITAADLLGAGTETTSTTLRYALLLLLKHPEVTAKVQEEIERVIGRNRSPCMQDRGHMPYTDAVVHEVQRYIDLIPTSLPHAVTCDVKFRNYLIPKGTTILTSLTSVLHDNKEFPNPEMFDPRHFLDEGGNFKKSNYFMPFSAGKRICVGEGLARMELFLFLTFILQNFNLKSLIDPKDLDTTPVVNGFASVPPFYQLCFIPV

[11] = target: T4, rCYP1A2 (Homo sapiens, UniProt P05177); test: Metabolic stability / reaction phenotyping with recombinant human CYP1A2; details: for % Metabolized at 30 min Incubation with Human Liver Fractions/Enzymes rCYP1A2: 1 µM test compound, 100 pmol/mL; for % Contribution of CYP Enzymes (fmCYP) in Metabolism, CYP1A2 / Predicted Microsomal Clint, CYP1A2 / rCYP Clint, CYP1A2: human, recombinant human CYP1A2, 1 µM, pH 7.4
T4 sequence (P05177 1-516): T2 sequence (P05177 1-516)

[12] = target: T5, rCYP2C8 (Homo sapiens, UniProt P10632); test: Metabolic stability / reaction phenotyping with recombinant human CYP2C8; details: for % Metabolized at 30 min Incubation with Human Liver Fractions/Enzymes rCYP2C8: 1 µM test compound, 100 pmol/mL
T5 sequence (P10632 1-490): T3 sequence (P10632 1-490)

[13] = target: rCYP2C9 (Homo sapiens, UniProt P11712); test: Metabolic stability / reaction phenotyping with recombinant human CYP2C9; details: for % Metabolized at 30 min Incubation with Human Liver Fractions/Enzymes rCYP2C9: 1 µM test compound, 100 pmol/mL; for % Contribution of CYP Enzymes (fmCYP) in Metabolism, CYP2C9 / Predicted Microsomal Clint, CYP2C9 / rCYP Clint, CYP2C9: human, recombinant human CYP2C9, 1 µM, pH 7.4
Chain of rCYP2C9 (P11712 whole entry): as the sequence (P11712 whole entry) above

[14] = target: rCYP2D6 (Homo sapiens, UniProt P10635); test: Metabolic stability / reaction phenotyping with recombinant human CYP2D6; details: for % Metabolized at 30 min Incubation with Human Liver Fractions/Enzymes rCYP2D6: 1 µM test compound, 100 pmol/mL; for % Contribution of CYP Enzymes (fmCYP) in Metabolism, CYP2D6 / Predicted Microsomal Clint, CYP2D6 / rCYP Clint, CYP2D6: human, recombinant human CYP2D6, 1 µM, pH 7.4
Chain of rCYP2D6 (P10635 whole entry): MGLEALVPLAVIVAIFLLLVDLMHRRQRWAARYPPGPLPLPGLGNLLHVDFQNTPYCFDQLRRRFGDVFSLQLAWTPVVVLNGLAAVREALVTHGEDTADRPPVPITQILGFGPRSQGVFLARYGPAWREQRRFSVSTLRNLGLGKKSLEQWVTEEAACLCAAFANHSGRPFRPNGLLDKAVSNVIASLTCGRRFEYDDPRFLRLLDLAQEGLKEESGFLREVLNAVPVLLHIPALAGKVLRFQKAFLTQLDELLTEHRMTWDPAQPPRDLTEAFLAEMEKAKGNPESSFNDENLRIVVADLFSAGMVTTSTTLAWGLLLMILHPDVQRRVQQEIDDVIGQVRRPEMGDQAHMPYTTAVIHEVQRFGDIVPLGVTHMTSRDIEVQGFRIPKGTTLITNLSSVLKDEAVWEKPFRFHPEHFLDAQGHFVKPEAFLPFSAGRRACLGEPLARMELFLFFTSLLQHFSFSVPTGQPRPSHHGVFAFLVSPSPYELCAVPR

[15] = target: rCYP2C19 (Homo sapiens, UniProt P33261); test: Metabolic stability / reaction phenotyping with recombinant human CYP2C19; details: for % Metabolized at 30 min Incubation with Human Liver Fractions/Enzymes rCYP2C19: 1 µM test compound, 100 pmol/mL; for % Contribution of CYP Enzymes (fmCYP) in Metabolism, CYP2C19 / Predicted Microsomal Clint, CYP2C19 / rCYP Clint, CYP2C19: human, recombinant human CYP2C19, 1 µM, pH 7.4
Chain of rCYP2C19 (P33261 whole entry): as the sequence (P33261 whole entry) above

[16] = target: rCYP3A4 (Homo sapiens, UniProt P08684)
Chain of rCYP3A4 (P08684 whole entry): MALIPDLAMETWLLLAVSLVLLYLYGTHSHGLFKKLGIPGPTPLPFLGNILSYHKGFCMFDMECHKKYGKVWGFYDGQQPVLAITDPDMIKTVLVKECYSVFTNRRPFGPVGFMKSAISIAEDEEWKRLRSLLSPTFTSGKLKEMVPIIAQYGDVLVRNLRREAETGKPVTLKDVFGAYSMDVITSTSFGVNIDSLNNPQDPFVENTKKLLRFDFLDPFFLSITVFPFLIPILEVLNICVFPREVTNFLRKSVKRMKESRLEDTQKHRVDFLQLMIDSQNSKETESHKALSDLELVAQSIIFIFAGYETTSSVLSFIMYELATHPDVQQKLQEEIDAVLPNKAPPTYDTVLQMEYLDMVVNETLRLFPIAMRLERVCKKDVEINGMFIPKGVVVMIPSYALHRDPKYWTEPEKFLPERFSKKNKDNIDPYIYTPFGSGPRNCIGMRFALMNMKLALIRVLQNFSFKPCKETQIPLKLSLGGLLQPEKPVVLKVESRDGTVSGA

[17] = cited from earlier work; remark: listed apart in the source
[18] = target: T1, CYP3A4; test: biochemical
[19] = pulmonary tuberculosis patients; cited from earlier work
[20] = inhibitor 10 µM, HLM, NI: No Inhibitin, 10 µM
[21] = human, recombinant human CYP2C8, 1 µM, pH 7.4
[22] = human, recombinant enzyme, pH 7.4

T1 sequence (P08684 2-503): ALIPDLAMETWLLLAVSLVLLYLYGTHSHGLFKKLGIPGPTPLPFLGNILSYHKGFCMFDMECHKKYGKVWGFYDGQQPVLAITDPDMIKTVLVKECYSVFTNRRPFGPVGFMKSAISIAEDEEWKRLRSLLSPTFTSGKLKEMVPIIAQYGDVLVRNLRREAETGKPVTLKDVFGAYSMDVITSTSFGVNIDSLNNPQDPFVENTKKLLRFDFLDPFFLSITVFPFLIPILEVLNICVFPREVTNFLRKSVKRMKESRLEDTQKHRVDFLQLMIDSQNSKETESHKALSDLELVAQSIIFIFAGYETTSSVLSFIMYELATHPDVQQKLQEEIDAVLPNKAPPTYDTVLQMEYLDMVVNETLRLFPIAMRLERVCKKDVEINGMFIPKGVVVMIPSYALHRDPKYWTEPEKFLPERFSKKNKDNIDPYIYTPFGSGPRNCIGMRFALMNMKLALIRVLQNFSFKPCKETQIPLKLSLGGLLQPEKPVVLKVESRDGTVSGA

| Compound | % Metabolized at 30 min Incubation with Human Liver Fractions/Enzymes Cytosol [1] [%] | inhibition at 2 µM [4] [%] | inhibition at 2 µM [5] [%] | inhibition at 10 µM [5] [%] | % Metabolized at 30 min Incubation with Human Liver Fractions/Enzymes HLM [6] [%] | inhibition at 2 µM [8] [%] | inhibition at 10 µM [8] [%] | % Inhibition of Control Activity CYP2C9 [9] [%] | % Metabolized at 30 min Incubation with Human Liver Fractions/Enzymes rCYP1A2 [11] [%] | % Contribution of CYP Enzymes (fmCYP) in Metabolism, CYP1A2 [11] [%] | Predicted Microsomal Clint, CYP1A2 [11] [µL/min/mg Protein] | rCYP Clint, CYP1A2 [11] [µL/min/pmol] | % Metabolized at 30 min Incubation with Human Liver Fractions/Enzymes rCYP2C8 [12] [%] | % Metabolized at 30 min Incubation with Human Liver Fractions/Enzymes rCYP2C9 [13] [%] | % Contribution of CYP Enzymes (fmCYP) in Metabolism, CYP2C9 [13] [%] | Predicted Microsomal Clint, CYP2C9 [13] [µL/min/mg Protein] | rCYP Clint, CYP2C9 [13] [µL/min/pmol] | % Metabolized at 30 min Incubation with Human Liver Fractions/Enzymes rCYP2D6 [14] [%] | % Contribution of CYP Enzymes (fmCYP) in Metabolism, CYP2D6 [14] [%] | Predicted Microsomal Clint, CYP2D6 [14] [µL/min/mg Protein] | further results |
| --- | --- | --- | --- | --- | --- | --- | --- | --- | --- | --- | --- | --- | --- | --- | --- | --- | --- | --- | --- | --- | --- |
| CCC[S+]([O-])c1ccc2[nH]c(NC(=O)OC)nc2c1 (stereo not drawn) [Albendazole sulfoxide, albendazole sulfoxide] | 0.20 | 2.48 | < 0 | < 0 | 4.23 | < 0 | < 0 | 9.49 |  |  |  |  |  |  |  |  |  |  |  |  | % Inhibition of Control Activity CYP3A4 (substrate, testosterone) [2]: 4.82%; increase of AUC ([3]; with transport inhibitors such as verapamil, quinidine and ivermectin): > 50%; % Inhibition of Control Activity CYP1A2 [7, 20]: 22.20% |
| CCCSc1ccc2nc(NC(=O)OC)[nH]c2c1 [Albendazole, albendazole, reference compound] | 0.00 |  |  |  | 50.06 | < 0 | < 0 | 12.40 | 98.92 | 74.79 | 78.510 | 1.510 | 2.43 | 5.96 | 1.87 | 1.966 | 0.020 | 64.92 | 3.33 | 3.491 | increase of exposure ([3]; with CYP3A4 inhibitor grapefruit juice): 3.2 fold; % Inhibition of Control Activity CYP2C19 [10, 20]: 4.20%; % Contribution of CYP Enzymes (fmCYP) in Metabolism, CYP2C8 [12, 21]: 0.50%; Predicted Microsomal Clint, CYP2C8 [12, 21]: 0.525 µL/min/mg Protein; rCYP Clint, CYP2C8 [12, 21]: 0.008 µL/min/pmol; rCYP Clint, CYP2D6 [14]: 0.349 µL/min/pmol; % Metabolized at 30 min Incubation with Human Liver Fractions/Enzymes rCYP2C19 [15]: 95.76%; % Contribution of CYP Enzymes (fmCYP) in Metabolism, CYP2C19 [15]: 19.06%; Predicted Microsomal Clint, CYP2C19 [15]: 20.011 µL/min/mg Protein; rCYP Clint, CYP2C19 [15]: 1.053 µL/min/pmol |
| CSc1nc2cc(Cl)c(Oc3cccc(Cl)c3Cl)cc2[nH]1 [Triclabendazole, reference compound] | 12.40 | 13.5 | < 0 | < 0 | 51.68 | 7.09 | 79.7 |  | 97.14 | 53.74 | 61.600 | 1.185 | 0.00 | 55.00 | 22.29 | 25.548 | 0.266 | 73.66 | 3.88 | 4.448 | % Metabolized at 30 min Incubation with Human Liver Fractions/Enzymes rCYP3A4 ([16]; 1 µM test compound, 100 pmol/mL, 30 min): 11.70%; Predicted Microsomal Clint, CYP3A4 ([16]; human, pH 7.4): 4.604 µL/min/mg Protein; % Contribution of CYP Enzymes (fmCYP) in Metabolism, CYP3A4 [16, 22]: 4.02%; rCYP Clint, CYP3A4 [16, 22]: 0.041 µL/min/pmol; Cmax ([17]; human patients at therapeutic doses of triclabendazole): 1160 nM; peak concentration ([17]; humans, standard dose of triclabendazole of 10 mg/kg): 1.16 µM; inhibition at 10 µM [4]: 52.9%; IC50 [18]: 15100 nM; IC50 [7]: 1070 nM; IC50 ([8]; IC50 CYP 2C8, HLM): 3310 nM; IC50 [9]: 1170 nM; IC50 [10]: 250 nM; rCYP Clint, CYP2D6 [14]: 0.445 µL/min/pmol; % Metabolized at 30 min Incubation with Human Liver Fractions/Enzymes rCYP2C19 [15]: 94.55%; % Contribution of CYP Enzymes (fmCYP) in Metabolism, CYP2C19 [15]: 16.07%; Predicted Microsomal Clint, CYP2C19 [15]: 18.415 µL/min/mg Protein; rCYP Clint, CYP2C19 [15]: 0.969 µL/min/pmol |
| CC(=O)NC[C@H]1CN(c2ccc(N3CC[S+]([O-])CC3)c(F)c2)C(=O)O1 [sutezolid sulfoxide] |  |  |  |  |  |  |  |  |  |  |  |  |  |  |  |  |  |  |  |  | metabolite to parent (sutezolid sulfoxide/ sutezolid) median concentration ratio [19]: 7.1 |
